Assay results published in patent US20140271756A1, “Controlled Release of Microbiocides” (priority 2013, published 2014).

Assay: benzyltriazole release flux rate test of membrane in 20 gallons tap water
Assay type: physicochemical
Settings: 80° F., 100 hour period
Procedure: The microbiocide component release flux rate through the membrane is defined as milligrams of microbiocide component released per hour through one square millimeter of membrane or mg./hr./mm^2. Because the release flux rate varies over a wide range and is at least sometimes relatively slow, a test using benzyltriazole has been developed to quantify certain release flux rates that may be useful in accordance with the present invention. This test is conducted as follows.
A tank with twenty (20) gallons of tap water is provided, together with a recirculating heater to give mixing and temperature control. […] Water samples are collected at regular intervals over a 100 hour period and are measured for benzyltriazole content. From these measurements, the benzyltriazole release flux rate of the membrane is determined. To illustrate, suppose 300 mg of benzyltriazole is released through 351 mm^2 of membrane area (exposed through an opening in the outermost wall of the container) in 100 hours. The benzyltriazole release flux rate

benzyltriazole
benzyltriazole release flux rate (membrane 27 of container 10, cellulose nitrate, average pore size about 20 to about 25 microns): about 0.049 mg/hr/min^2
benzyltriazole release flux rate (membrane layers 127 of container 110, cellulose nitrate, pore size about 8 microns): about 0.025 mg/hr./mm^2
